Assay results as given in PubChem BioAssay AID463204 (Broad Institute, 2010).
Active and inactive are the calls of the source.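 How the source made its calls: active means AC50 no more than ten times the top concentration tested, that is within one log above it; inconclusive means flat curve fit with activity between 30% and 70%, or invalid poor fit; inactive means AC50 beyond ten times the top tested dose.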

These molecules were tested on S. cerevisiae Mot1-301 ts growth rescue, BacTiter-Glo ATP luminescence (assay: growth rescue of Mot1-301 ts yeast, confirmation, SUMOylation pathway inhibitor project, whole organism, S. cerevisiae, Mot1-301 ts mutant, luminescence, dose retest (AID 463204);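 further: growth at restrictive 38.5 degrees C of Mot1-301 OY566 strain; actives raise luminescence by restoring growth of the ts mutant at high temperature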).

SMILES | AC50
COc1cc(SC)ccc1C(=O)Nc1cc(C)c(OCC(=O)N2CCOCC2)c(C)c1 | > 42 µM (inactive)
COc1cccc(-c2ocnc2C(=O)Nc2ccc3c(c2)CCC3)c1 | > 42 µM (inactive)
COc1ccc(Cl)cc1NC(=O)C1CCCN(c2cc(C)nc3ncnn23)C1 (configuration not stated) | > 42 µM (inactive)
COc1ccc(NC(=O)c2ccccc2NC(=O)NC2CCCCC2)cc1 | > 42 µM (inactive)
N#CCSc1nc2c(c(C3CC=CCC3)c1C#N)CCC2 (configuration not stated) | > 42 µM (inactive)
CS(=O)(=O)N(CC(=O)NCCSCc1ccccc1)c1ccc2c(c1)OCO2 | > 42 µM (inactive)
COc1ccc(-c2oc3ccc(-c4cc(OC)c(OC)c(OC)c4)cc3c2C(=O)c2ccc(OC)nc2)cc1 | > 42 µM (inactive)
Cc1ccc(-c2nn(-c3ccccc3)cc2C(=O)N2CCN(c3ccccn3)CC2)cc1 | > 42 µM (inactive)
O=C(NCc1ccco1)C1CC(=O)N(c2ccc(Cl)cc2)C1 (configuration not stated) | > 42 µM (inactive)
CCOC(=O)c1c(/N=C/C2C(=O)CCCC2=O)sc2c1CCCC2 | > 42 µM (inactive)
Cc1ccc(C(=O)NC(Cc2c[nH]c3ccccc23)C(=O)O)o1 (configuration not stated) | > 42 µM (inactive)
CCN(C(=O)Nc1ccccc1OC)c1c(N)n(Cc2ccccc2)c(=O)[nH]c1=O | > 42 µM (inactive)
Cc1c(=O)n(OCc2ccccn2)c2ccccc2[n+]1[O-] | > 42 µM (inactive)
O=C(OCc1nnc(-c2ccccc2)o1)c1ccc([N+](=O)[O-])o1 | 4.12 µM
COC(=O)c1cccc(NC(=O)c2cccnc2)c1 | > 42 µM (inactive)
COc1cc(CNCCN2CCOCC2)ccc1OCc1ccccc1Cl | > 42 µM (inactive)
Fc1cccc(NC(=S)N2CCn3cccc3C2c2cccnc2)c1 (configuration not stated) | > 42 µM (inactive)
O=C(CCSc1ccccc1)Nc1ncccn1 | > 42 µM (inactive)
COc1ccc(/C=N/NC(=O)c2c(C)nc3ccccn23)cc1[N+](=O)[O-] | > 42 µM (inactive)
CCOC(=O)c1oc2c(c1C)C(=O)CCC2 | > 42 µM (inactive)
Cc1ccc(C(C(=O)Nc2ccc3c(c2)OCO3)N(C)C(=O)Cc2c[nH]c3ccccc23)cc1 (configuration not stated) | > 42 µM (inactive)
O=c1[nH]c(O)c(N=Nc2cc([N+](=O)[O-])ccc2O)c(=O)[nH]1 | > 42 µM (inactive)
O=C(CCc1ccccc1)N1CCN(c2ccccc2F)CC1 | > 42 µM (inactive)
CCOC(=O)c1sc(NC(=O)C(CC)OC(=O)c2ccco2)nc1C (configuration not stated) | > 42 µM (inactive)
N#CC1=C(N)Oc2c(ccc3ccccc23)C1c1cccs1 (configuration not stated) | > 42 µM (inactive)

SMILES | AC50
COCCCNS(=O)(=O)c1ccc(Oc2ncc(C(F)(F)F)cc2Cl)cc1 | > 42 µM (inactive)
CCOC(=O)N1CCN(S(=O)(=O)c2ccc(Br)s2)CC1 | > 42 µM (inactive)
CCC1(CC)NC(=O)N(CC(=O)N2N=C(c3ccc(Cl)cc3)CC2c2ccco2)C1=O (configuration not stated) | > 42 µM (inactive)
COCCn1c(=NC(=O)c2ccc(S(=O)(=O)N3CCOCC3)cc2)sc2cc(S(N)(=O)=O)ccc21 | > 42 µM (inactive)
CCOC(=O)c1ccc(NC(=O)c2c(NC(=O)CCC(=O)O)sc3c2CCCCC3)cc1 | > 42 µM (inactive)
COc1ccc(OC)c(N(CC(=O)N2CCCC2)S(=O)(=O)c2ccccc2)c1 | > 42 µM (inactive)
Clc1ccc(CONc2ncnc3nonc23)c(Cl)c1 | 5.49 µM
CC(=O)Oc1cccc(N2C(=O)c3ccc(C(=O)Nc4c[nH]c(=O)[nH]c4=O)cc3C2=O)c1 | > 42 µM (inactive)
COc1cccc(/C=C2/C(=O)NN(c3ccc(Br)cc3)C2=O)c1O | > 42 µM (inactive)
COc1ccc2c(CC(=O)Nc3ccc(OC)c(NS(=O)(=O)c4ccc(F)cc4)c3)coc2c1 | > 42 µM (inactive)
Clc1ccc(CN(Cc2ccccc2)C(c2cccs2)c2nnnn2C2CCCC2)cc1 (configuration not stated) | > 42 µM (inactive)
O=C(NNC(=O)c1ccc(-n2cncn2)c([N+](=O)[O-])c1)c1ccc(Cl)cc1 | > 42 µM (inactive)
N#Cc1cc([N+](=O)[O-])cnc1NCC(O)CO (configuration not stated) | > 42 µM (inactive)
Cc1nn(C)cc1CNC(=O)C1CCC(=O)N(Cc2cccc(C(F)(F)F)c2)C1 (configuration not stated) | > 42 µM (inactive)
CC1CCN(C(=O)Cn2cnc3c2c(=O)n(C)c(=O)n3C)c2ccccc2S1 (configuration not stated) | 7.66 µM
COc1ccc(S(=O)(=O)N2CCc3cc4c(cc3C2C)OCCCO4)cc1 (configuration not stated) | > 42 µM (inactive)
Cc1ccc(NC(=O)CSCC(=O)Nc2ccccc2N2CCCC2)cc1 | > 42 µM (inactive)
COc1cccc(NC(=O)Nc2cc(C(=O)NC(C)C)ccc2N2CC3CC(C2)c2cccc(=O)n2C3)c1 (configuration not stated) | > 42 µM (inactive)
Fc1ccccc1-n1cc(-c2ccccc2)[nH]c1=S | > 42 µM (inactive)
O=C(Cc1cccs1)N1CCCC(c2nc3c(nnn3Cc3ccc(F)cc3)c(=O)[nH]2)C1 (configuration not stated) | > 42 µM (inactive)
COc1ccc(NC(=O)COc2cc(C)cc(C)c2)cc1S(=O)(=O)N1CCCCC1 | > 42 µM (inactive)
COc1ccc(NC(=O)CN(C)C(=O)/C=C/c2cn(-c3ccccc3)nc2-c2ccc(C)cc2)cc1 | > 42 µM (inactive)
CCOC(=O)C1=C(C)NC(C)=C(C(=O)OCC)C1C(=O)OC1CCOC1=O (configuration not stated) | > 42 µM (inactive)
O=C(Nc1nnc(COc2ccc(F)cc2)s1)c1cccs1 | > 42 µM (inactive)
O=C(CC(c1ccccc1)c1ccccc1)NCCOCc1ccccc1 | > 42 µM (inactive)

SMILES | AC50
Cc1ccc(N(C(=O)CCl)C(C(=O)NC2CCCCC2)c2cccnc2)cc1C (configuration not stated) | 9.72 µM
Cc1ccc(NC(=S)N2CCN(Cc3ccc4c(c3)OCO4)CC2)c(C)c1 | > 42 µM (inactive)
COCCNC(=O)C(=O)NCC1OCCN1C(=O)c1ccc(Cl)cc1 (configuration not stated) | > 42 µM (inactive)
COC(=O)C(CC(C)C)NC(=O)CNC(=O)c1ccccc1C (configuration not stated) | > 42 µM (inactive)
CCC(=O)N1CCc2cc(S(=O)(=O)CCC(=O)Nc3cccc(C)n3)ccc21 | > 42 µM (inactive)
O=[N+]([O-])c1ccc(-c2csc(N3CCc4ccccc4C3)n2)cc1 | > 42 µM (inactive)
CC(C)C[C@@H](CO)N1CCN(Cc2cccnc2)CCC1=O | > 42 µM (inactive)
CC(=O)Nc1ccc(S(=O)(=O)Nc2cccc(-c3ccc4nncn4n3)c2)cc1 | > 42 µM (inactive)
CCCCCC(=O)Nc1ccc(-c2csc(N)n2)cc1 | > 42 µM (inactive)
Cc1nc(NCCN2CCOCC2)c2nnn(Cc3c(F)cccc3Cl)c2n1 | > 42 µM (inactive)
O=C(NNC(=O)c1ccccc1O)c1ccco1 | > 42 µM (inactive)
O=C(COc1ccccc1Cl)c1ccc[nH]1 | > 42 µM (inactive)
Cc1cnc(C(=O)OC(C(=O)c2c[nH]c3ccccc23)c2ccccc2)cn1 (configuration not stated) | 29.4 µM
Cc1ccc(NS(=O)(=O)c2csc(C(N)=O)c2)cc1C | > 42 µM (inactive)
CSc1ccccc1-c1nc(-c2ccncc2)no1 | > 42 µM (inactive)
COC(=O)CN(C(=S)Nc1ccc(F)cc1)C1CC(=O)N(c2ccccc2)C1=O (configuration not stated) | > 42 µM (inactive)
CCOC(=O)N1CCC(NS(=O)(=O)c2ccc(C)c(Cl)c2)CC1 | > 42 µM (inactive)
O=C(NCc1cccc(F)c1F)C1CCC(=O)N(C2CC2)C1 (configuration not stated) | > 42 µM (inactive)
N/C(=N\NC(=O)c1sccc1OCc1ccc(Cl)cc1Cl)c1ccccn1 | > 42 µM (inactive)
O=C(NC1CCCCC1)C(c1ccncc1)N(Cc1ccc2c(c1)OCO2)C(=O)C(F)(F)F (configuration not stated) | > 42 µM (inactive)
CCOC(=O)c1c(C)[nH]c(C(=O)COC(=O)c2ccncc2)c1C | > 42 µM (inactive)
Cc1[nH]n(-c2ccccc2)c(=O)c1C(C[N+](=O)[O-])c1ccc(Br)cc1 (configuration not stated) | > 42 µM (inactive)
CCOc1ccccc1NC(=O)c1ccc2c(c1)C(=O)N(CC(C)C)C2=O | > 42 µM (inactive)
O=[N+]([O-])c1cccc(-c2nc3ccc([N+](=O)[O-])cc3[nH]2)c1 | > 42 µM (inactive)
C[N+](C)(C)CC(=O)Nc1ccc(Cl)cc1C(=O)c1ccccc1 | > 42 µM (inactive)

SMILES | AC50
N#CCC(=O)N/N=C/c1ccc(OS(=O)(=O)c2ccccc2)cc1 | > 42 µM (inactive)
Fc1ccc(-c2n[nH]c(=S)n2CC2CCCO2)cc1 (configuration not stated) | > 42 µM (inactive)
CN(C)CCN(Cc1ccc(Cl)cc1)c1ccccn1 | > 42 µM (inactive)
NC1=NC2(CCCC2)N=C(Nc2ccccc2)N1 | > 42 µM (inactive)
Cc1cc(C)c(S(=O)(=O)NCC(c2cccnc2)N2CCN(Cc3ccccc3)CC2)c(C)c1 (configuration not stated) | > 42 µM (inactive)
CC1C(=O)CC(c2ccccc2)NC1c1ccccc1 (configuration not stated) | > 42 µM (inactive)
CCn1c(C)c(C(C)=O)c(N2CCN(c3ccc(F)cc3)CC2)nc1=S | > 42 µM (inactive)
Cc1cc(C)n(-c2nc(-c3cccc(Cl)c3)cs2)n1 | > 42 µM (inactive)
Cc1ccc(/C=N/NC(=O)NC23CC4CC(CC(C4)C2)C3)o1 | > 42 µM (inactive)
CCCOc1ccccc1C1NC(=O)NC(C)=C1C(=O)OCc1ccccc1 (configuration not stated) | > 42 µM (inactive)
O=c1[nH]cnc2cc(Cl)ccc12 | > 21 µM (inactive)
CCC(C)NCCOc1ccccc1C (configuration not stated) | > 42 µM (inactive)
Cn1nc(C(=O)NCCc2ccc(Cl)cc2)c2c1-c1ccccc1S(=O)(=O)C2 | > 42 µM (inactive)
CCOC(=O)N1CCN(C(=O)CNC(=O)c2nn(-c3ccc(OC)c(OC)c3)c(=O)c3ccccc23)CC1 | > 42 µM (inactive)
COc1ccccc1NC(=O)c1nn(-c2cccc(C(F)(F)F)c2)ccc1=O | > 42 µM (inactive)
C=CC[N+]1(CC#Cc2ccccc2)CCCC1 | > 42 µM (inactive)
CCCCC1=CC2=CC(=O)C(C)(OC(=O)CC)C(=O)C2=CN1CCc1ccc(Br)cc1 (configuration not stated) | > 42 µM (inactive)
CC(C)C(NC(=S)Nc1ccccc1)C(=O)O (configuration not stated) | > 42 µM (inactive)
Cc1ccc(N2C(=O)c3cccc4c(N5CCN(C)CC5)ccc(c34)C2=O)c2cccnc12 | > 42 µM (inactive)
CCc1cc2c(=O)c(-c3nc4ccccc4[nH]3)coc2c(CN2CCCCC2)c1O | > 42 µM (inactive)
CC1(OC(=O)CCc2ccccc2)C(=O)C=C2C=C(c3ccc(C#N)cc3)N(CC3CC3)C=C2C1=O (configuration not stated) | > 42 µM (inactive)
CC1=Nc2ccc(C)cc2N(Cc2ccccc2)C(=O)C1 | > 42 µM (inactive)
